Patent US6180378A, “Immobilization of bioactive protein in phyllosilicates” (The United States of America as represented by the …, priority 1999, dated 2001)

Experiments:
[1] = molecular target: T1, free soybean lipoxygenase (LOX, type I-B) (Glycine max, UniProt P08170); experiment: LOX oxidation of linoleic acid, hydroperoxide (HPOD) formation, free enzyme; format: biochemical; conditions: substrate linoleic acid; free LOX under similar conditions
T1 sequence (P08170 1-839): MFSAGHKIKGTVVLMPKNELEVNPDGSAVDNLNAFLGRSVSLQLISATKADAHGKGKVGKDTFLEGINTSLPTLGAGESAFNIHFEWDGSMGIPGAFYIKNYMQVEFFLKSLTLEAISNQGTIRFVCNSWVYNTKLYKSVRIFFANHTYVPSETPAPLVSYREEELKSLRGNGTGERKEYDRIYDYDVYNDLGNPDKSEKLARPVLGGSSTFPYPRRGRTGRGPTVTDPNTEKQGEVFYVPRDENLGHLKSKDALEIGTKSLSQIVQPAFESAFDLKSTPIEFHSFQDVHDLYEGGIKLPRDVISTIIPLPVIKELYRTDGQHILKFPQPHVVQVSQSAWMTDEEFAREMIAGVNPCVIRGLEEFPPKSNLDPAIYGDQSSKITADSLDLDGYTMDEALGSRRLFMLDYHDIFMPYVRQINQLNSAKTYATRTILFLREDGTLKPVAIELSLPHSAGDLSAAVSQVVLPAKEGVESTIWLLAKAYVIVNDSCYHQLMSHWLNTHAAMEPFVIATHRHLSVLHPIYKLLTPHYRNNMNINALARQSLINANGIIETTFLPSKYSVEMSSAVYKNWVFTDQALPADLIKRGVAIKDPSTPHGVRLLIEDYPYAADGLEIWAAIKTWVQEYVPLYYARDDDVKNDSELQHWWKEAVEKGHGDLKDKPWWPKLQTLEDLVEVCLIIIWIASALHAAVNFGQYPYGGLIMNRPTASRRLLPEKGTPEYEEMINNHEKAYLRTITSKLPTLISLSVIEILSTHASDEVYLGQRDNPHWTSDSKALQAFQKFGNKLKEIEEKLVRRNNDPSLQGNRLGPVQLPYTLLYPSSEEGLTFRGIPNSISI
Experimental: Measurement of Enzymatic Activity. The activity of the immobilized lipoxygenase was assayed by measurement of hydroperoxide formation (Parra-Diaz, D. et al. [1993] supra). An aliquot of the substrate (5 μmoles of linoleic acid) dissolved in methylene chloride was placed in a 10 mL flask and evaporated to dryness under a stream of nitrogen. The reaction medium containing 0.2 mL of 100 mM deoxychlorate (DOC) and 1.8 mL of sodium borate buffer (0.2 M, pH 9.0) was added to the substrate, and the mixture was then shaken at 250 rpm for 0.5 h at 15° C. The reaction was initiated by adding a suitable amount (approximately 0.15 mg) free or immobilized LOX. Oxidation was conducted at 15° C. with agitation at 250 rpm for two hours. The reaction was quenched by adding 400 μL of 1 M citric add. Linoleic acid hydroperoxide was isolated by extracting the reaction mixture twice with 2 mL chloroform:methanol (2/1, v/v). After removing the solvent under a stream of nitrogen, the hydroperoxide was redissolved in 3 mL ethanol. The amount of hydroperoxide was determined spectrophotometrically by the xylenol orange method (Jiang, T.-Y. et al. [1991] Lipids 26:853-856). Standards were prepared by diluting a commercial cumene peroxide. […]

[2] = molecular target: T2, soybean lipoxygenase (LOX, type I-B) immobilized in crosslinked phyllosilicate (TMOS-crosslinked montmorillonite) (Glycine max, UniProt P08170); experiment: LOX oxidation of linoleic acid, hydroperoxide (HPOD) formation, immobilized enzyme; format: biochemical; conditions: substrate linoleic acid 0-20 μmoles; Lineweaver-Burk plot; LOX immobilized in crosslinked phyllosilicates
T2 construct: purchased Sigma, St. Louis, Mo
T2 sequence (P08170 1-839): T1 sequence (P08170 1-839)
Experimental: Measurement of Enzymatic Activity. The activity of the immobilized lipoxygenase was assayed by measurement of hydroperoxide formation (Parra-Diaz, D. et al. [1993] supra). An aliquot of the substrate (5 μmoles of linoleic acid) dissolved in methylene chloride was placed in a 10 mL flask and evaporated to dryness under a stream of nitrogen. The reaction medium containing 0.2 mL of 100 mM deoxychlorate (DOC) and 1.8 mL of sodium borate buffer (0.2 M, pH 9.0) was added to the substrate, and the mixture was then shaken at 250 rpm for 0.5 h at 15° C. The reaction was initiated by adding a suitable amount (approximately 0.15 mg) free or immobilized LOX. Oxidation was conducted at 15° C. with agitation at 250 rpm for two hours. The reaction was quenched by adding 400 μL of 1 M citric add. Linoleic acid hydroperoxide was isolated by extracting the reaction mixture twice with 2 mL chloroform:methanol (2/1, v/v). After removing the solvent under a stream of nitrogen, the hydroperoxide was redissolved in 3 mL ethanol. The amount of hydroperoxide was determined spectrophotometrically by the xylenol orange method (Jiang, T.-Y. et al. [1991] Lipids 26:853-856). […] All results were corrected by subtracting the reading from controls without enzymes. […]
Effect of substrate concentration. The rate of hydroperoxide (HPOD) formation was measured at linoleic acid concentrations ranging from 0-20 μmoles. […]

For `CCCCC/C=C\C/C=C\CCCCCCCC(=O)O` [linoleic acid], the Km [1] was 2500 µM, the Vmax [1] was 0.056 mol/min and the Km [2] was 1700 µM. It also gave a Vmax [2] of 0.023 µmol/min.
